# Source: the Deep4Chem optical property database
# Where “and” joins values, the source holds several entries; their conditions need not be identical. Equal entries are not always repeated.
# Experiment: solvent given as SMILES
SMILES,absorption maximum (in Cc1ccccc1),absorption maximum (in C1CCOC1),absorption maximum (in CC#N),absorption maximum (in CO),absorption maximum (in ClCCl),further results
COc1ccc(C2=C(c3ccccc3)C(c3ccccc3)=[N+]3C2=Nc2c(-c4ccc(OC)cc4)c(-c4ccccc4)c(-c4ccccc4)n2[B-]3(F)F)cc1,656 nm,–,–,–,–,–
N#Cc1c(-n2c3ccccc3c3cc(I)ccc32)c(C#N)c(-n2c3ccccc3c3cc(I)ccc32)c(-n2c3ccccc3c3cc(I)ccc32)c1-n1c2ccccc2c2cc(I)ccc21,383 nm,–,–,–,–,–
CN1CCc2cc(C3=Cc4cccc[n+]4[B-](F)(F)O3)ccc21,–,–,–,–,–,absorption maximum (in ClC(Cl)Cl): 430 nm
Cc1ccc(-n2c3ccccc3c3cc(C=C(C#N)C#N)ccc32)cc1,406 nm,407 nm,402 nm,402 nm,–,absorption maximum (in CC(C)=O): 402 nm; absorption maximum (in CCOC(C)=O): 400 nm; absorption maximum (in CS(C)=O): 407 nm; absorption maximum (in ClC(Cl)Cl): 413 nm
CC1(C)CCc2c(c3ccccc3c3nc4ccccc4nc23)O1,–,434.03 nm,–,434.97 nm,–,absorption maximum (in C1CCCCC1): 429.92 nm; absorption maximum (in CN(C)C=O): 438.98 nm; absorption maximum (in ClC(Cl)Cl): 437.06 nm; absorption maximum (in c1ccccc1): 431.03 nm
O=C(O)CCCCCn1c2ccccc2c(=O)c2cc(S(=O)(=O)O)ccc21,–,–,–,–,–,absorption maximum (in O): 409 nm
c1ccc(C2c3ccc4ccc5ccccc5c4c3-c3c2ccc2ccc4ccccc4c32)cc1,–,–,–,–,401 nm,–
CCN(CC)c1cccc2c1ccc1c(=O)oc(-c3ccc(C(F)(F)F)cc3)cc12,–,–,–,391 nm,–,absorption maximum (in CC(C)=O): 390 nm; absorption maximum (in CCCCCC): 388 nm; absorption maximum (in CCCCCCCCO): 393 nm; absorption maximum (in CCCCO): 392 nm; absorption maximum (in CCCO): 391 nm; absorption maximum (in CCO): 392 nm; absorption maximum (in CCOC(C)=O): 389 nm; absorption maximum (in CN(C)C=O): 394 nm
O=c1[nH]nc(-c2ccc(/C=C/c3ccc(-c4n[nH]c(=O)o4)cc3)cc2)o1,–,–,–,–,–,absorption maximum (in CN(C)C=O): 334 nm
COc1cc(/C=C/c2cc(OC)c(-c3nc(-c4ccccc4)c(-c4ccccc4)[nH]3)cc2OC)c(OC)cc1/C=C/c1cc(OC)c(-c2nc(-c3ccccc3)c(-c3ccccc3)[nH]2)cc1OC,447 nm,444 nm,441 nm,–,–,–
CC(C)(C)c1ccc2cc3c4cccc5cccc(c6cc(C(C)(C)C)cc(c2c1)c63)c54,–,–,–,–,–,absorption maximum (in CC1CCCCC1): 438 nm
COC1=[N+]2C(=C(c3ccc(C)cc3)c3ccc(OC)n3[B-]2(F)F)C=C1,517 nm,514 nm,510 nm,510 nm,–,absorption maximum (in C1CCCCC1): 513 nm; absorption maximum (in CCOC(C)=O): 512 nm; absorption maximum (in ClC(Cl)Cl): 516 nm
c1ccc(-n2c3ccccc3c3cc(-c4ccn5nc(-c6ccc(-n7c8ccccc8c8ccccc87)cc6)nc5c4)ccc32)cc1,–,341 nm,–,–,–,–
CC1=N/C(=C\c2cccc(N(C)C)c2)C(=O)N1C,–,354 nm,354 nm and 352 nm,–,–,absorption maximum (in CCCCCC): 352 nm
C(=C\c1nc(/C=C/c2ccc(-n3c4ccccc4c4ccccc43)cc2)nc(/C=C/c2ccc(-n3c4ccccc4c4ccccc43)cc2)n1)/c1ccc(-n2c3ccccc3c3ccccc32)cc1,389 nm,381 nm,376 nm,–,383 nm,–
CCOC(=O)c1c2c3c(ccc(Cl)c3c3cc4c(cc13)[Si](C)(C)O[Si]4(C)C)N(C)C2=O,–,–,378 nm,–,–,–
Cc1ccc([N+]2=c3c4n(c5ccccc35)[B-](F)(F)[N+](c3ccc(C)cc3)=c3c=4n(c4ccccc34)[B-]2(F)F)cc1,–,–,–,–,743 nm,–
CCCCCCN(CCCCCC)c1ccc(C#Cc2ccc(N(CCCCCC)CCCCCC)cc2)cc1,–,–,–,380 nm,387 nm,–
COc1cc2c(cc1OC)C1=C[C@H](c3ccc(C)cc3)C3(C(C#N)=C(C#N)N1CC2)c1cc(Cl)ccc1-c1ccc(Cl)cc13,–,–,–,–,315 nm,–
CCN1\C(=C/C=C/C=C/C2=[N+](CC)c3ccc4ccccc4c3C2(C)C)C(C)(C)c2c1ccc1ccccc21,–,684 nm,677 nm,678 nm,693 nm,absorption maximum (in CC(C)=O): 680 nm; absorption maximum (in CCO): 682 nm; absorption maximum (in CN(C)C=O): 683 nm; absorption maximum (in CS(C)=O): 686 nm
